Data as given in patent US10124004B2, “Pyrido[3,4-d]pyrimidine derivative and pharmaceutically acceptable salt thereof” (Teijin Pharma Limited, priority 2015, dated 2018).
Like-named read-outs stand apart in the source and are kept apart here.

Tests used:
CDK4/cyclin D3 = biological target: T1, CDK4/cyclin D3 (Homo sapiens, UniProt P11802); experiment: Human CDK4/cyclin D3 inhibitory activity (QS S Assist CDK4/Cyclin D3_FP Kit, IMAP fluorescence polarization); assay type: biochemical
T1 construct: purchased Carna Biosciences, Inc. QS S Assist CDK4/Cyclin D3_FP Kit
How it was run: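 IMAP fluorescence polarization kit: CDK4/cyclin D3 at 12.5-25 ng/well with kit ATP/substrate/metal mix in 20 mM HEPES pH 7.4, 0.01% Tween20, 2 mM DTT, 45 min at room temperature. FP read at 485/535 nm after 30 min binding; IC50 from dose-response fit of percent inhibition versus enzyme and no-enzyme controls.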

CDK2/cyclin A2 = biological target: T2, CDK2/cyclin A2 (Homo sapiens, UniProt P24941); experiment: Human CDK2/cyclin A2 inhibitory activity (QS S Assist CDK2/Cyclin A2_FP Kit, IMAP fluorescence polarization); assay type: biochemical
T2 construct: purchased Carna Biosciences, Inc. QS S Assist CDK2/Cyclin A2_FP Kit
How it was run: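 Kinase activity read as fluorescence polarization (485/535 nm) after phosphorylated fluorescent substrate binds IMAP reagent (30 min, RT, dark). Enzyme (2.5 ng/well) reacted 60 min at RT with ATP/substrate/metal in HEPES pH 7.4 buffer with Tween 20 and DTT; no-enzyme wells define 0% activity; IC50 by curve fit.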

[1] = 50% inhibitory concentration against CDK4/cyclin D3, given as class symbol
[2] = 50% inhibitory concentration against CDK2/cyclin A2, given as class symbol
[3] = Human CDK4/cyclin D3 inhibitory activity, read-out: CDK4 Activity symbol
[4] = Human CDK2/cyclin A2 inhibitory activity, read-out: CDK2 Activity symbol

T1 sequence (P11802 whole entry): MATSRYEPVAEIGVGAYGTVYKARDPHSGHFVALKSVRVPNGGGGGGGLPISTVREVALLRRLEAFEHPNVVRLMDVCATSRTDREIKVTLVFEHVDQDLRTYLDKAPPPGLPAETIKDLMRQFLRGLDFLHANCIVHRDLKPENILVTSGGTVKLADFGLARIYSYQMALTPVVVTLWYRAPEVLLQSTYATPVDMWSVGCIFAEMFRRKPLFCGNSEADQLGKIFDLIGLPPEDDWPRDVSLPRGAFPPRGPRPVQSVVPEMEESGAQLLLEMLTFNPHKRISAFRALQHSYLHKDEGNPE
T1 sequence (P30281 whole entry partner): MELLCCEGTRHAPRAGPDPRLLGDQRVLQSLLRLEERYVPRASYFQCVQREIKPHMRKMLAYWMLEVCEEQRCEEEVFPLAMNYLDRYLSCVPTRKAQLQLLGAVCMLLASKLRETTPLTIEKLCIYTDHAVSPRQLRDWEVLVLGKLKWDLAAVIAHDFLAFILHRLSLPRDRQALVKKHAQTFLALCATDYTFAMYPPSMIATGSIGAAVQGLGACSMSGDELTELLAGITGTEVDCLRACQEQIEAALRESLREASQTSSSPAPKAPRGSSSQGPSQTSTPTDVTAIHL

| SMILES | IC50 (CDK4/cyclin D3; [1]) | IC50 (CDK2/cyclin A2; [2]) | IC50 (CDK4/cyclin D3; [3]) | IC50 (CDK2/cyclin A2; [4]) |
| --- | --- | --- | --- | --- |
| CNCCOc1ccc(Nc2ncc3cc(C(C)O)nc(NC4(C)CCCOC4)c3n2)nc1 (single isomer, unassigned) [Compound 870] | < 0.01 µM | ≥ 0.1 µM | – | – |
| CC(C)Nc1nc([C@@H](C)O)cc2cnc(Nc3ccc(N4CCNCC(C)C4=O)cn3)nc12 (stereo partly shown) [Compound 665] | < 0.01 µM | ≥ 0.1 µM | – | – |
| CO[C@H](C)c1cc2cnc(Nc3ccc(CN4CCOCC4(C)C)cn3)nc2c(NC(C)C)n1 [Compound 279] | – | – | 0.01 to 0.1 µM | ≥ 0.1 µM |
| CCCNc1nc([C@@H](C)O)cc2cnc(Nc3ccc(CN4CCN(CCO)C[C@@H]4C)cn3)nc12 [Compound 1077] | < 0.01 µM | ≥ 0.1 µM | – | – |
| CO[C@H](C)c1nc(NC(C)C)c2nc(Nc3ccc(C(=O)N4CCNCC4)cn3)ncc2c1Cl [Compound 842] | 0.01 to 0.1 µM | ≥ 0.1 µM | – | – |
| CCC(O)c1cc2cnc(Nc3ccc(N4CCNCC4)cn3)nc2c(NC(C)C)n1 (stereo not shown) [Compound 1035] | < 0.01 µM | ≥ 0.1 µM | – | – |
| CO[C@H](C)c1cc2cnc(Nc3ncc(N4CCNCC4=O)cc3F)nc2c(NC(C)C)n1 [Compound 715] | 0.01 to 0.1 µM | ≥ 0.1 µM | – | – |
| CC(C)Nc1nc([C@@H](C)O)cc2cnc(Nc3ccc(CN4CCN(C(=O)CN(C)C)CC4)cn3)nc12 [Compound 1194] | < 0.01 µM | ≥ 0.1 µM | – | – |
| CC(C)Nc1nc([C@@H](C)O)cc2cnc(Nc3cnc(CN4CCNCC4)cn3)nc12 [Compound 1049] | < 0.01 µM | ≥ 0.1 µM | – | – |
| COCC(C)(C)Nc1nc([C@@H](C)O)cc2cnc(Nc3ccc(CN4CCNC(=O)C4)cn3)nc12 [Compound 182] | – | – | 0.01 to 0.1 µM | ≥ 0.1 µM |
| CC(CO)Nc1nc(C(C)O)cc2cnc(Nc3ccc(N4CCNCC4)cn3)nc12 (stereo not shown) [Compound 41] | – | – | < 0.01 µM | ≥ 0.1 µM |
| CO[C@H](C)c1cc2cnc(Nc3ccc(CN4CCNC5(CC5)C4)cn3)nc2c(N[C@H]2CCCOC2)n1 [Compound 378] | – | – | < 0.01 µM | ≥ 0.1 µM |
| COC(=O)CCc1ccc(Nc2ncc3cc(C(F)F)nc(NC(C)C)c3n2)nc1 [Compound 102] | – | – | 0.01 to 0.1 µM | ≥ 0.1 µM |
| CO[C@H](C)c1cc2cnc(Nc3ccc4c(n3)CCN(CCN(C)C)C4)nc2c(N[C@H]2CCCOC2)n1 [Compound 1132] | < 0.01 µM | ≥ 0.1 µM | – | – |
| CC(C)CNc1nc([C@@H](C)O)cc2cnc(Nc3ccc(N4CCNCC4)nn3)nc12 [Compound 827] | < 0.01 µM | ≥ 0.1 µM | – | – |
| CC(C)Nc1nc(C(F)F)cc2cnc(Nc3ccc(CN4CCCNC4=O)cn3)nc12 [Compound 219] | – | – | < 0.01 µM | 0.01 to 0.1 µM |
| CC(C)Nc1nc([C@@H](C)O)cc2cnc(Nc3ccc(N4CCN(CCO)CC4)nn3)nc12 [Compound 510] | – | – | < 0.01 µM | ≥ 0.1 µM |
| CC(C)Nc1nc([C@@H](C)O)c(F)c2cnc(Nc3ccc(N4CCNCC4=O)cn3)nc12 [Compound 981] | < 0.01 µM | 0.01 to 0.1 µM | – | – |
| CO[C@H](C)c1cc2cnc(Nc3ccc(CN4CCNCC4)nn3)nc2c(NC(C)C)n1 [Compound 246] | – | – | < 0.01 µM | ≥ 0.1 µM |
| CO[C@H](C)c1cc2cnc(Nc3ccc(OC4CCNC4)cn3)nc2c(NC(C)C)n1 (stereo partly shown) [Compound 290] | – | – | < 0.01 µM | ≥ 0.1 µM |
| CO[C@H](C)c1cc2cnc(Nc3ccc(N4CCNCC4)nn3)nc2c(SC(C)C)n1 [Compound 728] | < 0.01 µM | ≥ 0.1 µM | – | – |
| CC(C)Nc1nc(C2CCCO2)cc2cnc(Nc3ccc(N4CCNCC4)nn3)nc12 (single isomer, unassigned) [Compound 713] | < 0.01 µM | ≥ 0.1 µM | – | – |
| C[C@@H](O)c1cc2cnc(Nc3ccc(CN4CCN(CCO)CC4)cn3)nc2c(NCC2CCOCC2)n1 [Compound 847] | < 0.01 µM | ≥ 0.1 µM | – | – |
| Cc1nc(Nc2ncc3cc(C4CCOC4)nc(NC(C)C)c3n2)ccc1N1CCNCC1=O (single isomer, unassigned) [Compound 875] | < 0.01 µM | ≥ 0.1 µM | – | – |
| C[C@@H](O)c1cc2cnc(Nc3ccc(C4CCNCC4)nn3)nc2c(NC2CCOCC2)n1 [Compound 317] | – | – | < 0.01 µM | ≥ 0.1 µM |

| SMILES | IC50 (CDK4/cyclin D3; [1]) | IC50 (CDK2/cyclin A2; [2]) | IC50 (CDK4/cyclin D3; [3]) | IC50 (CDK2/cyclin A2; [4]) |
| --- | --- | --- | --- | --- |
| COCC(C)(C)Nc1nc([C@@H](C)O)cc2cnc(Nc3ccc(N4CCOCC4)nn3)nc12 [Compound 216] | – | – | 0.01 to 0.1 µM | ≥ 0.1 µM |
| CC(C)Nc1nc([C@@H](C)O)cc2cnc(Nc3ccc4c(n3)CCN(C(=O)C3CCNCC3)C4)nc12 [Compound 932] | < 0.01 µM | ≥ 0.1 µM | – | – |
| C[C@@H](O)c1cc2cnc(Nc3ccc(CN4CCNCC4)cn3)nc2c(N[C@H]2CCOC2)n1 [Compound 258] | – | – | < 0.01 µM | ≥ 0.1 µM |
| CO[C@H](C)c1cc2cnc(Nc3ccc(N4CC5(CCN5)C4)nn3)nc2c(NC(C)C)n1 [Compound 696] | < 0.01 µM | ≥ 0.1 µM | – | – |
| CNC1(C)CCN(c2ccc(Nc3ncc4cc([C@@H](C)O)nc(NC(C)C)c4n3)nn2)CC1 [Compound 601] | – | – | < 0.01 µM | ≥ 0.1 µM |
| CCCNc1nc(C2CCOC2)cc2cnc(Nc3ccc(CN4CCNCC4)cn3)nc12 (stereo not shown) [Compound 1005] | < 0.01 µM | ≥ 0.1 µM | – | – |
| FC(F)c1cc2cnc(Nc3ccc(N4CCNCC4)cn3)nc2c(NC2CCCC2)n1 [Compound 1] | – | – | < 0.01 µM | 0.01 to 0.1 µM |
| CC(C)Nc1nc(C(F)F)cc2cnc(Nc3ccc(N4CCNCC4)nn3)nc12 [Compound 73] | – | – | < 0.01 µM | 0.01 to 0.1 µM |
| C[C@@H](O)c1cc2cnc(Nc3ccc(N4CCN(C=O)CC4=O)cn3)nc2c(N[C@H]2CCOC2)n1 [Compound 354] | – | – | 0.01 to 0.1 µM | ≥ 0.1 µM |
| CO[C@H](C)c1cc2cnc(Nc3ccc(CN4CCNCC4)cn3)nc2c(N[C@H]2CC[C@H](C(=O)O)CC2)n1 [Compound 343] | – | – | < 0.01 µM | ≥ 0.1 µM |
| CC(C)Nc1nc([C@@H](C)O)cc2cnc(Nc3ccc(N4CCN[C@H](C(C)C)C4=O)cn3)nc12 [Compound 766] | 0.01 to 0.1 µM | ≥ 0.1 µM | – | – |
| CO[C@H](C)c1cc2cnc(Nc3ccc4c(n3)CCN(C(=O)CO)C4)nc2c(N[C@H]2CC[C@H](O)CC2)n1 [Compound 1144] | < 0.01 µM | ≥ 0.1 µM | – | – |
| CC(C)Nc1nc(C(F)F)cc2cnc(Nc3ccc(CN4CCNCC4)cn3)nc12 [Compound 47] | – | – | < 0.01 µM | 0.01 to 0.1 µM |
| CC(C)Nc1nc(C2CCOC2)cc2cnc(Nc3ccc(CN4CCNCC4)cn3)nc12 (stereo not shown) [Compound 881] | < 0.01 µM | ≥ 0.1 µM | – | – |
| CO[C@H](C)c1cc2cnc(Nc3ccc(N4CC[C@H](O)CC4=O)cn3)nc2c(NC(C)C)n1 [Compound 267] | – | – | < 0.01 µM | ≥ 0.1 µM |
| CO[C@H](C)c1cc2cnc(Nc3ccc(CN4CCN(CC(N)=O)CC4)cn3)nc2c(NC(C)C)n1 [Compound 970] | < 0.01 µM | ≥ 0.1 µM | – | – |
| CCCNc1nc([C@@H](C)O)cc2cnc(Nc3ccc(CN4CCC(CO)CC4)cn3)nc12 [Compound 1040] | < 0.01 µM | ≥ 0.1 µM | – | – |
| CC(C)Nc1nc(C(C)O)cc2cnc(Nc3ccc(N4CCC(N(C)C)C(F)C4)nn3)nc12 (stereo not shown) [Compound 621] | – | – | < 0.01 µM | ≥ 0.1 µM |
| CC(C)Nc1nc(C(C)O)cc2cnc(Nc3ccc(N4CCC(N)C4)cn3)nc12 (stereo not shown) [Compound 76] | – | – | < 0.01 µM | ≥ 0.1 µM |
| CC(C)Nc1nc([C@@H](C)O)cc2cnc(Nc3ccc(N4CCN(C5CCC5)CC4)nn3)nc12 [Compound 602] | – | – | < 0.01 µM | ≥ 0.1 µM |
| CC1(c2cc3cnc(Nc4ccc5c(n4)CCN(CCO)C5)nc3c(N[C@H]3CC[C@H](O)CC3)n2)COC1 [Compound 1155] | < 0.01 µM | ≥ 0.1 µM | – | – |
| C[C@@H](O)c1cc2cnc(Nc3ccc(N4CCN(C=O)CC4=O)cn3)nc2c(NC2CCOCC2)n1 [Compound 355] | – | – | < 0.01 µM | ≥ 0.1 µM |
| CC(C)Nc1nc([C@@H](C)O)cc2cnc(Nc3ccc(CC4CCNCC4)cn3)nc12 [Compound 950] | < 0.01 µM | ≥ 0.1 µM | – | – |
| CO[C@H](C)c1cc2cnc(Nc3ccc(C(C)N4CCNCC4)cn3)nc2c(NC(C)C)n1 (stereo partly shown) [Compound 266] | – | – | < 0.01 µM | ≥ 0.1 µM |
| CC(C)Nc1nc(C(F)F)cc2cnc(Nc3ccc(CN4CCC(CO)CC4)cn3)nc12 [Compound 147] | – | – | < 0.01 µM | 0.01 to 0.1 µM |
